Read-outs that look alike come from different tables or passages of the source. No end group written: not given here.
Biological target: T1, GPR103 L193^ECL2A (Homo sapiens, UniProt Q96P65, L193A)
T1 construct: we used human full-length QRFPR-encoding plasmids; expressed in transfected cells; host or cells: HEK293 cells, pCAGGS vector
T1 sequence (Q96P65 1-431 L193A): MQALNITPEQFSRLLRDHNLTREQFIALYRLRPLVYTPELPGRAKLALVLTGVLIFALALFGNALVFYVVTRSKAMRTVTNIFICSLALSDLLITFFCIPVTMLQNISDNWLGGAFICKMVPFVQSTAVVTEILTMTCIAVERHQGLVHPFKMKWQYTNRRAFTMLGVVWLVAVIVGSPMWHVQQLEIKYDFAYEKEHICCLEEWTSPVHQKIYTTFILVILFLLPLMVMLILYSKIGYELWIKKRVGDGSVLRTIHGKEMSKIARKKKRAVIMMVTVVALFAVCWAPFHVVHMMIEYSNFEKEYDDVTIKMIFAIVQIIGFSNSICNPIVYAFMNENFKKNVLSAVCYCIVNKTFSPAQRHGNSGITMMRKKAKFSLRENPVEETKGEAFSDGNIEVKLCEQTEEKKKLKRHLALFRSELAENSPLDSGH
Test: TGFα shedding assay; Exp. level WT (1:50)
Assay type: cell-based

Substance: TSGPLGNLAEELNGYSRKKGGFSFRF-NH2 [QRFP26]
- Emax (Exp. #1): 89.95 % WT
- Emax (Exp. #2): 86.94 % WT
- Emax (Exp. #3): 94.38 % WT
- Emax (mean, read-out: Emax): 90.4%
- EC50 (n = 3): 182 nM
- Emax (n = 3, read-out: Emax): 93.8 ± 1.8%
